Holding throughout (format): cell-based
Assay [1] deals with MDA-MB-231 (breast cancer). Kind of assay: Antiproliferative activity (CCK-8 cell viability), MDA-MB-231. To be noted: Homo sapiens, 72 h, read-out: Antiproliferative activity in cancerous cells, MDA-MB-231 (inhibition of cell growth); for inhibition at 3.3 µM: Compound concentration: 3.3 μM; for inhibition at 10 µM: Compound concentration: 10 μM. Put shortly:
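In this CCK-8 viability assay, MDA-MB-231 cells maintained in Dulbecco's modified Eagle's medium containing 10% fetal bovine serum were placed in 96-well plates (2,000-5,000 cells/well) and treated with compound for 72 h at 37° C. A 4 h incubation with 10 μL CCK-8 followed, plates were read at 450 nm, and viability was expressed against DMSO vehicle wells across replicates.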

Another assay concerns HepG2 (liver cancer). The assay is described as follows: Antiproliferative activity (CCK-8 cell viability), HepG2. To be noted: Homo sapiens, 72 h, read-out: Antiproliferative activity in cancerous cells, HepG2 (inhibition of cell growth); for inhibition at 3.3 µM: Compound concentration: 3.3 μM; for inhibition at 10 µM: Compound concentration: 10 μM. Put shortly:
(§1)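 Cells were seeded at 2,000-5,000/well (HeLa in MEM, HepG2 and SW480 in DMEM, A549 in F-12K, all with 10% FBS) and treated with compound at 3.3, 10 or 30 μM for 72 h at 37° C. CCK-8 was added for 4 h, absorbance was read at 450 nm, and viability was expressed relative to DMSO-treated wells.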

Assay [2] deals with A431 (epidermoid carcinoma). The assay is described as follows: Antiproliferative activity (CCK-8 cell viability), A431. To be noted: Homo sapiens, 72 h, read-out: Antiproliferative activity in cancerous cells, A431 (inhibition of cell growth); for inhibition at 3.3 µM: A-431, Compound concentration: 3.3 μM; for inhibition at 10 µM: A-431, Compound concentration: 10 μM. In outline: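 Cell viability of compound-treated A431 cells was measured with a Cell Counting Kit-8. Each well received 10 μL of CCK-8 after 72 h of compound exposure, followed by 4 h incubation at 37° C. and a 450 nm plate-reader measurement. Percent viability was calculated relative to DMSO controls across replicates.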

Assay [3] relates to A549 (lung adenocarcinoma). Kind of assay: Antiproliferative activity (CCK-8 cell viability), A549. To be noted: Homo sapiens, 72 h, read-out: Antiproliferative activity in cancerous cells, A549 (inhibition of cell growth); for inhibition at 3.3 µM: Compound concentration: 3.3 μM; for inhibition at 10 µM: Compound concentration: 10 μM. In outline: as §1
The subject of the next assay is HeLa (cervical cancer). The assay is described as follows: Antiproliferative activity (CCK-8 cell viability), HeLa. As to conditions: Homo sapiens, 72 h, read-out: Antiproliferative activity in cancerous cells, HELA (inhibition of cell growth); for inhibition at 3.3 µM: Compound concentration: 3.3 μM; for inhibition at 10 µM: Compound concentration: 10 μM. In outline:
as §1

Another assay concerns SW480 (colon cancer). The assay is described as follows: Antiproliferative activity (CCK-8 cell viability), SW480. As to conditions: Homo sapiens, 72 h, read-out: Antiproliferative activity in cancerous cells, SW480 (inhibition of cell growth); for inhibition at 3.3 µM: Compound concentration: 3.3 μM; for inhibition at 10 µM: Compound concentration: 10 μM. Put shortly:
as §1

Assay [4] concerns B16F10 (malignant melanoma). Kind of assay: Antiproliferative activity (CCK-8 cell viability), B16F10. As to conditions: Mus musculus, 72 h, read-out: Antiproliferative activity in cancerous cells, B16F10 (inhibition of cell growth); for inhibition at 3.3 µM: B16-F10, Compound concentration: 3.3 μM; for inhibition at 10 µM: B16-F10, Compound concentration: 10 μM. In outline:
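Attached B16F10 cells in 96-well plates were incubated with compound at 37° C for 72 h, followed by 10 μL CCK-8 reagent per well and a further 4 h incubation. A multi-well plate reader measured absorbance at 450 nm. Percent viability across replicates was calculated against DMSO vehicle-treated cells.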

The values below come from US20260184663A1, “INDENE COMPOUNDS, PHARMACEUTICAL COMPOSITIONS THEREOF, AND THEIR THERAPEUTIC APPLICATIONS” (NucMito Pharmaceuticals co. Ltd., priority 2022, published 2026).

As to `CC1=C(CC(=O)O)c2cc(F)ccc2/C1=C\c1ccc(-c2ccc(Cl)cc2)cc1` [D13, (Z)-2-(1-((4′-Chloro-[1,1′-biphenyl]-4-yl)methylene)-5-fluoro-2-methyl-1H-inden-3-yl)acetic acid], the inhibition (commonly the drop in the measured response relative to a control, in per cent) at 3.3 µM in assay [1] is < 30%; with HepG2 (liver cancer), < 30%; in assay [2], < 30%; in assay [3] it was < 30%; in the assay on HeLa (cervical cancer), < 30%; in the assay on SW480 (colon cancer) it was 30 to 50%. Further, in assay [4], the inhibition at 3.3 µM was ≥ 50%. Further, the inhibition at 10 µM in assay [1] is 30 to 50%; in the assay with HepG2 (liver cancer), < 30%; in assay [2] it was 30 to 50%; in assay [3], < 30%; in the assay on HeLa (cervical cancer), ≥ 50%; in the assay with SW480 (colon cancer) it was 30 to 50%. Besides, in assay [4], the inhibition at 10 µM was ≥ 50%. The inhibition at 30 µM in assay [1] (Compound concentration: 30 μM) is ≥ 50%; in the assay with HepG2 (liver cancer) (Compound concentration: 30 μM), < 30%; in assay [2] (A-431, Compound concentration: 30 μM), 30 to 50%; in assay [3] (Compound concentration: 30 μM) it was 30 to 50%; with HeLa (cervical cancer) (Compound concentration: 30 μM) it was ≥ 50%; in the assay on SW480 (colon cancer) (Compound concentration: 30 μM), 30 to 50%. Besides, in assay [4] (B16-F10, Compound concentration: 30 μM), the inhibition at 30 µM is ≥ 50%.
For the compound `CC1=C(CC(=O)O)c2cc(F)ccc2/C1=C\c1ccc(COCc2ccc(Cl)cc2)cc1` [B103, (Z)-2-(1-(4-(((4-Chlorobenzyl)oxy)methyl)benzylidene)-5-fluoro-2-methyl-1H-inden-3-yl)acetic acid], the inhibition at 3.3 µM is 30 to 50% in assay [1]; 30 to 50% with HepG2 (liver cancer); ≥ 50% in assay [2]; < 30% in assay [3]; < 30% in the assay on HeLa (cervical cancer); < 30% in the assay on SW480 (colon cancer). Besides, the inhibition at 3.3 µM in assay [4] is < 30%. For the same compound, the inhibition at 10 µM (in assay [1]; in the assay on HepG2 (liver cancer); in assay [2]; in assay [3]; in the assay with HeLa (cervical cancer); in the assay with SW480 (colon cancer)) was ≥ 50% each time. In assay [4], the inhibition at 10 µM is ≥ 50%.
Turning to `COc1ccc(CCCc2ccc(/C=C3/C(C)=C(CC(=O)O)c4cc(Cl)ccc43)cc2)cc1` [B127, (Z)-2-(5-Chloro-1-(4-(3-(4-methoxyphenyl)propyl)benzylidene)-2-methyl-1H-inden-3-yl)acetic acid], the inhibition at 3.3 µM was ≥ 50% in assay [1]; ≥ 50% with HepG2 (liver cancer); ≥ 50% in assay [2]; ≥ 50% in assay [3]; ≥ 50% with HeLa (cervical cancer); < 30% in the assay with SW480 (colon cancer). Further, the inhibition at 3.3 µM in assay [4] is ≥ 50%. The inhibition at 10 µM (in assay [1]; in the assay with HepG2 (liver cancer); in assay [2]; in assay [3]; with HeLa (cervical cancer); with SW480 (colon cancer)) was ≥ 50% in each case. Besides, the inhibition at 10 µM in assay [4] was ≥ 50%.
`CC1=C(CC(=O)O)c2cc(F)ccc2/C1=C\c1ccc(CN(CCc2ccccc2)c2ccccc2)cc1` [B19, (Z)-2-(5-Fluoro-2-methyl-1-(4-((phenethyl(phenyl)amino)methyl)benzylidene)-1H-inden-3-yl)acetic acid]: the inhibition at 3.3 µM in assay [1] is ≥ 50%; in the assay on HepG2 (liver cancer), < 30%; in assay [2], < 30%; in assay [3] it was ≥ 50%; in the assay with HeLa (cervical cancer), 30 to 50%; in the assay with SW480 (colon cancer) it was 30 to 50%. In addition, the inhibition at 3.3 µM in assay [4] was < 30%. Moreover, the inhibition at 10 µM (in assay [1]; in the assay with HepG2 (liver cancer); in assay [2]; in assay [3]; in the assay on HeLa (cervical cancer); with SW480 (colon cancer)) was ≥ 50% each time. The inhibition at 10 µM in assay [4] was ≥ 50%.
